Assays:
human SGLT2 = biological target: T1, human SGLT2 (Homo sapiens, UniProt P31639); test: Assay for SGLT2 inhibition (14C-AMG uptake in CHOK1 cells expressing human SGLT2); assay type: cell-based; details: CHOK1 cells expressing human SGLT2; 14C-AMG uptake, 0.5 mM, 2 hours at 37° C.; read-out: IC50
T1 construct: expressed in transfected cells; host or cells: CHOK1 (Chinese hamster ovary) cells, kept under Geneticin selection
T1 sequence (P31639 1-672): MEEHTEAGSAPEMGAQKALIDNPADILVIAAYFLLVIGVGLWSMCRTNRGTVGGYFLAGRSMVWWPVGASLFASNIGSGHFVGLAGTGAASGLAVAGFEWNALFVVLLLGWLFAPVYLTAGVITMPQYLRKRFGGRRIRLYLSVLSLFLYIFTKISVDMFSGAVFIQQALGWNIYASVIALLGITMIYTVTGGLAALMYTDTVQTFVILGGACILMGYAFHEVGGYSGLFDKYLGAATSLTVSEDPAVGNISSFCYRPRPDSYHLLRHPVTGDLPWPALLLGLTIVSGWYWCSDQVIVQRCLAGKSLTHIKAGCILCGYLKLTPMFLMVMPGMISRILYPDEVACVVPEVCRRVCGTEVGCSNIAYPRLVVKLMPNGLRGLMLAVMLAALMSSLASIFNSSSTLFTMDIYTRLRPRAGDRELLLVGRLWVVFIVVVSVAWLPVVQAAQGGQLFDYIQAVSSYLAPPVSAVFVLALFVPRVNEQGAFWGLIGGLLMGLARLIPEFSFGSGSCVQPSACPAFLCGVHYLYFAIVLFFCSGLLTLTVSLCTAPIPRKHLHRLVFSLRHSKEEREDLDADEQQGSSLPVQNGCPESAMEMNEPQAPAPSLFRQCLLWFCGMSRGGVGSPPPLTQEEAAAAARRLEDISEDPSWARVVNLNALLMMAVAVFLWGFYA
Description: 1. Assay for SGLT2 Inhibition
Compounds described in the above examples were used for the SGLT2 inhibition assay.
CHOK1 cells expressing human SGLT2 were seeded in 24-well plates at a density of 400,000 cells/well in F-12 nutrient mixture (Ham's F-12) containing 10% fetal bovine serum, 400 μg/ml Geneticin, 50 units/ml sodium penicillin G (Gibco-BRL) and 50 μg/ml streptomycin sulfate. After 2 days of culture at 37° C. in a humidified atmosphere containing 5% CO2, cells were washed once with the assay buffer (137 mM NaCl, 5 mM KCl, 1 mM CaCl2, 1 mM MgCl2, 50 mM Hepes, and 20 mM Tris, pH 7.4) and incubated with 250 μl of the buffer containing test compounds for 10 min at 37° C. Test compounds were dissolved in DMSO. The final concentration of DMSO was 0.5%. The transport reaction was initiated by addition of 50 μl [^14C]-methyl-α-D-glucopyranoside (^14C-AMG) solution (final concentration, 0.5 mM). After incubation for 2 hours at 37° C., the uptake was stopped by aspiration of the incubation mixture, the cells were washed three times with ice-cold PBS. Then, cells were solubilized with 0.3 N NaOH and aliquots were taken for determination of radioactivity by a liquid scintillation counter. Nonspecific AMG uptake was defined as that which occurred in the presence of 100 μM of phlorizin, a specific inhibitor of sodium-dependent glucose cotransporter. Specific uptake was normalized for the protein concentrations measured by the method of Bradford. The 50% inhibitory concentration (IC50) values were calculated from dose-response curves by least square method.

Sprague-Dawley (SD) rats = test: Urinary glucose excretion test in rats; assay type: in vivo, rat; details: male SD rats; 30 mg/kg by oral gavage; urine collected for 24 hours; daily amount of glucose excreted in urine per individual
Description: 2. Urinary Glucose Excretion Test in Rats Test Compounds:
Compounds described in the above examples were used for the Urinary glucose excretion test in rats.
6-week-old male Sprague-Dawley (SD) rats were housed in individual metabolic cages with free access to food and water from 2 days prior to the experiment. On the morning of the experiment, rats were administered vehicle (0.2% carboxymethyl cellulose solution containing 0.2% Tween80) or test compounds (30 mg/kg) by oral gavage at a volume of 10 ml/kg. Then, urine of the rat was collected for 24 hours, and the urine volume was measured. Subsequently, the glucose concentration in urine was quantified using the enzymatic assay kit and the daily amount of glucose excreted in urine per individual was calculated.

melting point	Compound	IC50 (human SGLT2)	Urinary glucose (Sprague-Dawley (SD) rats)
	OC[C@H]1O[C@@H](n2cc(Cc3ccc(OCCCl)cc3)c3c(F)cccc32)[C@H](O)[C@@H](O)[C@@H]1O [Example 13, 3-(4-(2-Chloroethyloxy)phenylmethyl)-4-fluoro-1-(β-D-gluco-pyranosyl)indole]	6 nM	B (2400 mg>B≧2000 mg)
	OC[C@H]1O[C@@H](n2cc(Cc3ccc4occc4c3)c3c(Cl)cccc32)[C@H](O)[C@@H](O)[C@@H]1O [Example 15, 3-(Benzo[b]furan-5-yl-methyl)-4-chloro-1-(β-D-glucopyranosyl)indole]	3.3 nM	A (A≧2400 mg)
	OC[C@H]1O[C@@H](n2cc(Cc3ccc(I)cc3)c3c(Cl)cccc32)[C@H](O)[C@@H](O)[C@@H]1O [Example 33, 4-Chloro-3-(4-iodophenylmethyl)-1-(β-D-glucopyranosyl)-indole]	4.1 nM	A (A≧2400 mg)
	Cc1cccc2c1c(Cc1ccc3occc3c1)cn2[C@@H]1O[C@H](CO)[C@@H](O)[C@H](O)[C@H]1O [Example 40, 3-(Benzo[b]furan-5-yl-methyl)-4-methyl-1-(β-D-glucopyranosyl)indole]	6.2 nM	B (2400 mg>B≧2000 mg)
195 to 200 °C	Cc1cccc2c1c(Cc1ccc(-c3ccccn3)s1)cn2[C@@H]1O[C@H](CO)[C@@H](O)[C@H](O)[C@H]1O [Example 52, 4-Methyl-3-(5-(2-pyridyl)thiophen-2-yl-methyl)-1-(β-D-gluco-pyranosyl)indole]	2.8 nM	
	OC[C@H]1O[C@@H](n2cc(Cc3ccc(OC(F)F)cc3)c3c(F)cccc32)[C@H](O)[C@@H](O)[C@@H]1O [Example 26, 3-(4-(Difluoromethoxy)phenylmethyl)-4-fluoro-1-(β-D-gluco-pyranosyl)indole]	11 nM	A (A≧2400 mg)
	Cc1cccc2c1c(Cc1ccc(I)cc1)cn2[C@@H]1O[C@H](CO)[C@@H](O)[C@H](O)[C@H]1O [Example 39, 3-(4-Iodophenylmethyl)-4-methyl-1-(β-D-glucopyranosyl)indole]	3.6 nM	B (2400 mg>B≧2000 mg)
	OC[C@H]1O[C@@H](n2cc(Cc3ccc4occc4c3)c3c(F)cccc32)[C@H](O)[C@@H](O)[C@@H]1O [Example 20, 3-(Benzo[b]furan-5-yl-methyl)-4-fluoro-1-(β-D-glucopyranosyl) indole]	5.7 nM	A (A≧2400 mg)
	OC[C@H]1O[C@@H](n2cc(Cc3ccc4occc4c3)c3c(Cl)c(F)ccc32)[C@H](O)[C@@H](O)[C@@H]1O [Example 34, 3-(Benzo[b]furan-5-yl-methyl)-4-chloro-5-fluoro-1-(β-D-gluco-pyranosyl)indole]	11 nM	B (2400 mg>B≧2000 mg)
	CCOc1ccc(Cc2cn([C@@H]3O[C@H](CO)[C@@H](O)[C@H](O)[C@H]3O)c3cccc(F)c23)cc1 [Example 8, 3-(4-Ethoxyphenylmethyl)-4-fluoro-1-(β-D-glucopyranosyl)-indole]	4.8 nM	A (A≧2400 mg)
	CCc1ccc(Cc2cn([C@@H]3O[C@H](CO)[C@@H](O)[C@H](O)[C@H]3O)c3cccc(F)c23)cc1 [Example 2, 3-(4-Ethylphenylmethyl)-4-fluoro-1-(β-D-glucopyranosyl)-indole]	5.2 nM	A (A≧2400 mg)
	OC[C@H]1O[C@@H](n2cc(Cc3ccc(C(F)F)cc3)c3c(Cl)cccc32)[C@H](O)[C@@H](O)[C@@H]1O [Example 30, 4-Chloro-3-(4-(difluoromethyl)phenylmethyl)-1-(β-D-gluco-pyranosyl)indole]	3.2 nM	A (A≧2400 mg)
	OC[C@H]1O[C@@H](n2cc(Cc3ccc4occc4c3)c3c(Br)cccc32)[C@H](O)[C@@H](O)[C@@H]1O [Example 43, 3-(Benzo[b]furan-5-yl-methyl)-4-bromo-1-(β-D-glucopyranosyl)-indole]	8.4 nM	A (A≧2400 mg)
	OC[C@H]1O[C@@H](n2cc(Cc3ccc(I)cc3)c3c(Br)cccc32)[C@H](O)[C@@H](O)[C@@H]1O [Example 42, 4-Bromo-3-(4-iodophenylmethyl)-1-(β-D-glucopyranosyl)indole]	6.1 nM	A (A≧2400 mg)
	OC[C@H]1O[C@@H](n2cc(Cc3ccc(F)cc3)c3c(Cl)cccc32)[C@H](O)[C@@H](O)[C@@H]1O [Example 27, 4-Chloro-3-(4-fluorophenylmethyl)-1-(β-D-glucopyranosyl)-indole]	16 nM	B (2400 mg>B≧2000 mg)
	Cc1cccc2c1c(Cc1ccc(Br)cc1)cn2[C@@H]1O[C@H](CO)[C@@H](O)[C@H](O)[C@H]1O [Example 38, 3-(4-Bromophenylmethyl)-4-methyl-1-(β-D-glucopyranosyl)-indole]	12 nM	B (2400 mg>B≧2000 mg)
	OC[C@H]1O[C@@H](n2cc(Cc3ccc4occc4c3)c3c(Cl)cc(Cl)cc32)[C@H](O)[C@@H](O)[C@@H]1O [Example 32, 3-(Benzo[b]furan-5-yl-methyl)-4,6-dichloro-1-(β-D-gluco-pyranosyl)indole]	7.5 nM	B (2400 mg>B≧2000 mg)
	CCOc1ccc(Cc2cn([C@@H]3O[C@H](CO)[C@@H](O)[C@H](O)[C@H]3O)c3ccc(F)c(Cl)c23)cc1 [Example 35, 4-Chloro-3-(4-ethoxyphenylmethyl)-5-fluoro-1-(β-D-gluco-pyranosyl)indole]	9.1 nM	A (A≧2400 mg)
	OC[C@H]1O[C@@H](n2cc(Cc3ccc(OCCCl)cc3)c3c(Cl)cccc32)[C@H](O)[C@@H](O)[C@@H]1O [Example 19, 4-Chloro-3-(4-(2-chloroethyloxy)phenylmethyl)-1-(β-D-gluco-pyranosyl)indole]	3.9 nM	A (A≧2400 mg)
	OC[C@H]1O[C@@H](n2cc(Cc3ccc(OC(F)F)cc3)c3c(Cl)cccc32)[C@H](O)[C@@H](O)[C@@H]1O [Example 31, 4-Chloro-3-(4-(difluoromethoxy)phenylmethyl)-1-(β-D-gluco-pyranosyl)indole]	2.6 nM	A (A≧2400 mg)
	OC[C@H]1O[C@@H](n2cc(Cc3ccc(Br)cc3)c3c(Br)cccc32)[C@H](O)[C@@H](O)[C@@H]1O [Example 41, 4-Bromo-3-(4-bromophenylmethyl)-1-(β-D-glucopyranosyl)indole]	12 nM	B (2400 mg>B≧2000 mg)
	CCOc1ccc(Cc2cn([C@@H]3O[C@H](CO)[C@@H](O)[C@H](O)[C@H]3O)c3cccc(Cl)c23)cc1 [Example 3, 4-Chloro-3-(4-ethoxyphenylmethyl)-1-(β-D-glucopyranosyl)-indole]	3.5 nM	B (2400 mg>B≧2000 mg)
	OC[C@H]1O[C@@H](n2cc(Cc3ccc(I)cc3)c3c(Cl)c(F)ccc32)[C@H](O)[C@@H](O)[C@@H]1O [Example 37, 4-Chloro-5-fluoro-3-(4-iodophenylmethyl)-1-(β-D-gluco-pyranosyl)indole]	14 nM	B (2400 mg>B≧2000 mg)

From US7935674B2, “Indole derivatives” (Mitsubishi Tanabe Pharma Corporation, priority 2005, dated 2011)
